The target in data set [1] is T1, Tryptophan 2,3-dioxygenase (Homo sapiens, UniProt P48775). The data set is described as follows: Inhibition of human TDO.
Target sequence in this assay (P48775 whole entry): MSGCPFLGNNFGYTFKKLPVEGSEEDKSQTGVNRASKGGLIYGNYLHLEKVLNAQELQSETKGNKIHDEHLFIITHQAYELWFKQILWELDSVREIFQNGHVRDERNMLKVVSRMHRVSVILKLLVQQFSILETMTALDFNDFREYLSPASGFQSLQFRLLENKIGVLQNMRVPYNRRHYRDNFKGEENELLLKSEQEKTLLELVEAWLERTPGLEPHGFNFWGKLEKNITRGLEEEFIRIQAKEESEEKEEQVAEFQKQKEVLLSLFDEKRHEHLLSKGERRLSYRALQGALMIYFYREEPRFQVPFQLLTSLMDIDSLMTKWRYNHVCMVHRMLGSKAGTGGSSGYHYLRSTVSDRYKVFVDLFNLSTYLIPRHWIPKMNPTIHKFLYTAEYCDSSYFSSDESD
Data set [2] deals with T2, Indoleamine 2,3-dioxygenase 1 (Homo sapiens, UniProt P14902). As to the kind of experiment: Inhibition of human IDO1.
Target sequence in this assay (P14902 whole entry, the tested form may be a part): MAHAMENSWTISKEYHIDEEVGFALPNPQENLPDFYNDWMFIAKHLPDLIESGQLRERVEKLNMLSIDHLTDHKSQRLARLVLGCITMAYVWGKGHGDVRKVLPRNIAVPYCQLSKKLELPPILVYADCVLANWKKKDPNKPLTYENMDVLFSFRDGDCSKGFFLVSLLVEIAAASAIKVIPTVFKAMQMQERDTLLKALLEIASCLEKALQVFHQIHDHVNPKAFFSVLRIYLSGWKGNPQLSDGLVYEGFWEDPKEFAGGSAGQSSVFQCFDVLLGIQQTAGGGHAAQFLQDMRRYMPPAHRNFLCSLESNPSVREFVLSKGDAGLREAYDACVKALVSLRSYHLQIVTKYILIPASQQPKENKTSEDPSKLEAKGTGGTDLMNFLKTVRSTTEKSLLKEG
In data set [3] the target is T2, Indoleamine 2,3-dioxygenase 1. As to the kind of experiment: Inhibition of N-terminal hexa-histidine tagged human IDO1 (12 to 403 residues) expressed in Escherichia coli Transetta (DE3) using L-tryptophan as substrate at 100 uM preincubated with enzyme for 10 mins followed by substrate addition and measured after 30 to 60 mins by microplate reader analysis relative to control. The following applies: time 40-70 min.
Target sequence in this assay (P14902 whole entry, looked up, the tested form may be a part): as the sequence (P14902 whole entry, the tested form may be a part) above

Data set [4] has the same target. As to the kind of experiment: Inhibition of N-terminal hexa-histidine tagged human IDO1 (12 to 403 residues) expressed in Escherichia coli Transetta (DE3) using L-tryptophan as substrate at 10 uM preincubated with enzyme for 10 mins followed by substrate addition and measured after 30 to 60 mins by microplate reader analysis relative to control. To be noted: time 40-70 min.
Target sequence in this assay (P14902 whole entry, looked up, the tested form may be a part): as the sequence (P14902 whole entry, the tested form may be a part) above

Data set [5] has as its target T1, Tryptophan 2,3-dioxygenase. As to the kind of experiment: Inhibition of N-terminal hexa-histidine tagged human TDO (19 to 388 residues) expressed in Escherichia coli Transetta (DE3) using L-tryptophan as substrate at 100 uM preincubated with enzyme for 10 mins followed by substrate addition and measured after 30 to 60 mins by microplate reader analysis relative to control. The following applies: time 40-70 min.
Target sequence in this assay (P48775 whole entry, looked up): as the sequence (P48775 whole entry) above

In data set [6] the target is T1, Tryptophan 2,3-dioxygenase. The data set is described as follows: Inhibition of N-terminal hexa-histidine tagged human TDO (19 to 388 residues) expressed in Escherichia coli Transetta (DE3) using L-tryptophan as substrate at 10 uM preincubated with enzyme for 10 mins followed by substrate addition and measured after 30 to 60 mins by microplate reader analysis relative to control. The following applies: time 40-70 min.
Target sequence in this assay (P48775 whole entry, looked up): as the sequence (P48775 whole entry) above

A short description of data set [7]: Cytotoxicity against […] cells assessed as inhibition of cell growth incubated for 24 hrs by MTT assay. Type of data set: functional, cell-based. The following applies: Mus musculus, Hepa1-6, 24 h. Background: Tetrazolium assays rely on reduction of a dye to a coloured formazan, in cell work by metabolically active cells.
For data set [8], the target named is T2, Indoleamine 2,3-dioxygenase 1. As to the kind of experiment: Inhibition of N-terminal hexa-histidine tagged human IDO1 (12 to 403 residues) expressed in Escherichia coli Transetta (DE3) using L-tryptophan as substrate preincubated with enzyme for 10 mins followed by substrate addition and measured after 30 to 60 mins by microplate reader analysis.
Target sequence in this assay (P14902 whole entry, the tested form may be a part): as the sequence (P14902 whole entry, the tested form may be a part) above
The target in data set [9] is T1, Tryptophan 2,3-dioxygenase. As to the kind of experiment: Inhibition of N-terminal hexa-histidine tagged human TDO (19 to 388 residues) expressed in Escherichia coli Transetta (DE3) using L-tryptophan as substrate preincubated with enzyme for 10 mins followed by substrate addition and measured after 30 to 60 mins by microplate reader analysis.
Target sequence in this assay (P48775 whole entry): as the sequence (P48775 whole entry) above
The next data set relates to H22. The data set is described as follows: Cytotoxicity against mouse H22 cells assessed as inhibition of cell growth incubated for 24 hrs by MTT assay. Type of data set: functional, cell-based. To be noted: H22, 24 h.
The next data set has as its system HEK293. As to the kind of experiment: Cytotoxicity against HEK293 cells assessed as inhibition of cell growth at <10 uM incubated for 24 hrs by MTT assay. Type of data set: toxicity, cell-based. To be noted: human, hek293, 24 h.
In a further data set the test system is B16. The data set is described as follows: Cytotoxicity against mouse B16 cells assessed as inhibition of cell growth incubated for 24 hrs by MTT assay. In kind it is functional, cell-based. To be noted: B16, 24 h.
For the next data set, the system named is Jurkat. As to the kind of experiment: Cytotoxicity against human Jurkat cells assessed as inhibition of cell growth incubated for 24 hrs by MTT assay. Type of data set: functional, cell-based.
For another data set, the system named is HepG2. As to the kind of experiment: Cytotoxicity against human HepG2 cells assessed as inhibition of cell growth incubated for 24 hrs by MTT assay. The following applies: HepG2, 24 h. In kind it is functional, cell-based.
In a further data set the test system is MOLM-13. As to the kind of experiment: Cytotoxicity against human MOLM-13 cells assessed as inhibition of cell growth incubated for 24 hrs by MTT assay. In kind it is functional, cell-based. To be noted: MOLM-13, 24 h.

The results in this text go back to ChEMBL document CHEMBL5108015, “4,6-Disubstituted-1H-Indazole-4-Amine derivatives with immune-chemotherapy effect and in vivo antitumor activity” (Eur J Med Chem, 2022).

Turning to `O[C@@H]1c2ccnn2CC[C@H]1[C@H]1c2ccccc2-c2cncn21`, the half-inhibitory concentration (IC50) (as a rule, the concentration needed to halve the response being measured) is 0.13 µM in [1] and 4.5 µM in data set [2].
With `O=[N+]([O-])c1ccc(Cl)cc1CNc1cc(C(F)(F)F)cc2[nH]ncc12`, the inhibition (commonly the percentage by which the read-out fell short of the control) turned out to be 65% in [3], 35% in data set [4], 88% in data set [5] and 84% in data set [6]. Also, the IC50 turned out to be 0.94 µM in data set [7]; 37.7 µM in data set [8]; 3.19 µM in [9]; 0.49 µM in the data set with H22; 11.6 µM in the data set on B16; 1.1 µM with Jurkat. The IC50 worked out at 1.3 µM with HepG2 and 1.05 µM in the data set with MOLM-13. Also, the Activity result with HEK293 is listed as “Non-Toxic”.
On to `CC(C(=O)c1ccc(O)cc1)C1(O)C(=O)Nc2c(Cl)cc(Cl)cc21` (configuration not stated), for which the Ki in data set [1] and in data set [2] was over 1 µM each time.
For `NC(=O)Nc1ccc(-c2c[nH]c3cc(F)ccc23)cc1`, the IC50 in data set [1] was found to be 0.078 µM; in data set [2], 0.049 µM.
With `CS(=O)(=O)c1ccc(CNc2cc(C(F)(F)F)cc3[nH]ncc23)c([N+](=O)O)c1`, the inhibition in data set [3] was determined as 93%; in [4] it was 63%; in data set [5] it was 98%; in [6], 96%. For the same compound, the IC50 was over 20 µM in data set [7]; 58 µM in data set [8]; 0.79 µM in data set [9]; over 20 µM with H22; over 20 µM in the data set on B16; over 20 µM in the data set on Jurkat. Moreover, the half-maximal inhibitory concentration (IC50) in the data set on HepG2 and with MOLM-13 was over 20 µM in each case.
On to `O=[N+](O)c1c(Cl)cccc1CNc1cc(C(F)(F)F)cc2[nH]ncc12`, for which the inhibition in data set [3] turned out to be 69%; in [4], 45%; in data set [5], 94%; in data set [6], 96%. Besides, the IC50 was over 20 µM in [7]; 60 µM in data set [8]; 0.17 µM in [9]; over 20 µM with H22; over 20 µM in the data set with B16; over 20 µM in the data set with Jurkat. Also, the IC50 in the data set on HepG2 is over 20 µM; in the data set on MOLM-13, 7.69 µM.
On to `O=[N+]([O-])c1cc(Br)c(F)cc1CNc1cc(C(F)(F)F)cc2[nH]ncc12`, for which the inhibition came to 64% in data set [3], 31% in data set [4], 88% in data set [5] and 85% in data set [6]. The IC50 is 15 µM in [7]; over 100 µM in [8]; 1.46 µM in data set [9]; 1.85 µM in the data set with H22; 13.8 µM in the data set with B16; 2.82 µM in the data set on Jurkat. The results for the IC50 in the data set with HepG2 and in the data set on MOLM-13 were 1.96 µM and 4.27 µM, respectively.
On to `COc1cc(CNc2cc(Br)cc3[nH]ncc23)c([N+](=O)[O-])cc1OC`, for which the inhibition in data set [3] came out at 79%; in [4] it was 48%; in data set [5], 95%; in data set [6] it was 87%. Further, the IC50 in [7] was 15.2 µM; in [8] it was 18.5 µM; in data set [9], 1.04 µM; with H22, 6.11 µM; with B16, over 20 µM; in the data set with Jurkat, over 20 µM. Besides, the results for the IC50 in the data set with HepG2 and in the data set on MOLM-13 were 2.97 µM and over 20 µM, respectively.
In the case of `FC(F)(F)c1cc(NC[C@@H]2CCCCN2)c2cn[nH]c2c1`, the inhibition stood at 81% in data set [3], 32% in [4], 88% in [5] and 64% in data set [6]. In addition, the IC50 is over 20 µM in data set [7]; 18.7 µM in [8]; 8.05 µM in data set [9]; 21.7 µM in the data set on H22; over 20 µM with B16; over 20 µM with Jurkat. The figures for the IC50 in the data set on HepG2 and in the data set on MOLM-13 were 19.9 µM and over 20 µM, respectively.
For `O=[N+]([O-])c1cccc(CNc2cc(Br)cc3[nH]ncc23)c1`, the inhibition in [3] is 95%; in data set [4], 72%; in [5], 97%; in data set [6] it was 91%. Also, the IC50 is over 20 µM in data set [7]; 7.95 µM in data set [8]; 1.6 µM in data set [9]; over 20 µM with H22; over 20 µM in the data set with B16; over 20 µM with Jurkat. Moreover, the IC50 with HepG2 is 23.6 µM; in the data set on MOLM-13, over 20 µM.
Consider `FC(F)(F)c1cc(NC[C@H]2CCCN2)c2cn[nH]c2c1`, for which the inhibition in data set [3] came to 83%; in data set [4], 34%; in [5], 84%; in data set [6], 55%. The half-maximal inhibitory concentration (IC50) was over 20 µM in [7]; 9.58 µM in [8]; 6.09 µM in data set [9]; 19.7 µM in the data set on H22; over 20 µM with B16; over 20 µM in the data set on Jurkat. Besides, the IC50 in the data set with HepG2 was 16.2 µM; in the data set on MOLM-13 it was over 20 µM.
As to `O=[N+]([O-])c1cc(Cl)ccc1CNc1cc(C(F)(F)F)cc2[nH]ncc12`, the inhibition in data set [3] was found to be 77%; in [4], 50%; in data set [5] it was 93%; in [6] it was 90%. The IC50 in data set [7] is over 20 µM; in data set [8] it was 18 µM; in data set [9] it was 1.7 µM; in the data set with H22, 10.3 µM; in the data set on B16, over 20 µM; with Jurkat it was 8.04 µM. Also, the results for the IC50 in the data set with HepG2 and with MOLM-13 were 5.82 µM and 4.13 µM, respectively.
With `O=[N+]([O-])c1ccc(CNc2cc(Br)cc3[nH]ncc23)cc1`, the inhibition in data set [3] was 87%; in [4], 63%; in [5], 93%; in [6] it was 87%. Moreover, the IC50 in [7] is over 20 µM; in [8] it was 6.97 µM; in [9] it was 2.23 µM; in the data set with H22, over 20 µM; in the data set with B16 it was over 20 µM; with Jurkat, over 20 µM. Moreover, the IC50 in the data set with HepG2 and with MOLM-13 was over 20 µM throughout.
